Values of other authors as cited in patent US10865157B2, “Methods and compositions for increasing the yield of, and beneficial chemical composition of, certain plants” (B.K. Consultants, Inc., priority 2014, dated 2020).

Details: similarly sized particles

SMILES: CC(=O)Oc1ccccc1C(=O)O [non-crystalline aspirin, aspirin]
- solubility in water relative to the crystal form: 2 to 8 times
